According to patent US8354443B2, “Cyclopropane indolinone derivatives” (Hoffmann-La Roche Inc., priority 2009, dated 2013):
pEC50: −log10 of the molar value.

test system: recombinant AMPK proteins (α1β1γ1, α2β1γ1, α1(1-335), α1(1-394) or α2(1-394)); assay: Scintillation Proximity Assay (AMPK activation); format: biochemical, human; details: effective concentration of activator for 50% of maximal enzyme activity; 2 hr at 30° C.; AMPK form not specified
Text: Recombinant human AMPK α1β1γ1, α2β1γ1 or AMPK a subunit truncations α1 (1-335), α1 (1-394) and α2(1-394) were constructed, expressed and purified as described previously (Pang, T., Zhang, Z. S., Gu, M., Qiu, B. Y., Yu, L. F., Cao, P. R., Shao, W., Su, M. B., Li, J. Y., Nan, F. J., and Li, J. (2008) or purchased from Invitrogen (San Diego, Calif., U.S.A.). Rat liver AMPK heterotrimer enzyme was obtained from Upstate (Billerica, Mass., U.S.A.).
Before the Scintillation Proximity Assay (SPA) assay, 200 nM recombinant AMPK proteins (α1β1γ1, α2β1γ1, α1(1-335), α1(1-394) or α2(1-394)) were fully phosphorylated as described previously (Pang et al., 2008). SPA reactions were performed in 96-well plates at a final volume of 50 μl containing 20 mM Tris-HCl pH 7.5, 5 mM MgCl2, 1 mM DTT, 2 μM biotin-SAMS, 2 μM ATP, 0.2 μCi/well [γ-^33P]ATP, and various amount of activator. Reactions were initiated by the addition of 50 nM recombinant AMPK proteins to the reaction solutions and incubated at 30° C. for 2 hr. After that, reactions were terminated by the addition of 40 μl stop solution containing 80 μg streptavidin-coated SPA beads per well, 50 mM EDTA, 0.1% Triton X-100 in PBS, pH 7.5 and incubated for 1 hr. Finally, a 160 μl suspension solution containing 2.4 M CsCl, 50 mM EDTA, and 0.1% Triton X-100 in PBS (pH 7.5) was added to the reaction solution to suspend SPA beads completely. SPA signals were determined with a Wallac MicroBeta plate counter (PerkinElmer) 30 min later for calculation of the amount of product formed. The amount of products formed in 2 hr was plotted against activator concentrations to determine the effective concentration of the activator (EC50) required for 50% of maximal enzyme activity.

Row | Compound | pEC50
1 | O=C(O)c1cccc(CN2C(=O)[C@]3(C[C@H]3c3ccccc3C(F)(F)F)c3ccccc32)c1 (racemic) [Example 12, (1S,2S) and (1R,2R)-3-((2′-oxo-2-(2-(trifluoromethyl)phenyl)-spiro[cyclopropane-1,3′-indoline]-1′-yl)methyl)benzoic acid] | 5.63
2 | (1R,2R) and (1S,2S)-((2-(4-(methylsulfonyl)phenyl)-2′-oxospiro[cyclopropane-1,3′-indoline]-1′-yl)methyl)benzoic acid [Example 4] | 5.66
3 | O=C(c1cccc(CN2C(=O)[C@]3(C[C@@H]3c3ccc(Cl)cc3)c3ccccc32)c1)N1CCNCC1 (racemic) [Example 62, (1S,2R) and (1R,2S)-2-(4-chlorophenyl)-1′-(3-(piperazine-1-carbonyl)benzyl)spiro[cyclopropane-1,3′-indolin]-2′-one] | 5.18
4 | CS(=O)(=O)N1CCN(C(=O)c2cccc(N3C(=O)[C@]4(C[C@H]4c4ccc(Cl)cc4)c4ccccc43)c2)CC1 (racemic) [Example 87, (1S,2S) and (1R,2R)-2-(4-chlorophenyl)-1′-(3-(4-(methylsulfonyl)piperazine-1-carbonyl)phenyl)spiro[cyclopropane-1,3′-indolin]-2′-one] | 5.17
5 | O=C(O)c1cn(CCN2C(=O)[C@]3(C[C@H]3c3ccc(Cl)cc3)c3ccccc32)cn1 (racemic) [Example 82, (1S,2S) and (1R,2R)-1-(2-(2-(4-chlorophenyl)-2′-oxospiro[cyclopropane-1,3′-indoline]-1′-yl)ethyl)-1H-imidazole-4-carboxylic acid] | 5.39
6 | O=C1N(CCNCCCN2CCOCC2)c2ccccc2[C@@]12C[C@@H]2c1ccc(Cl)cc1 (racemic) [Example 127, (1S,2R) and (1R,2S)-2-(4-chlorophenyl)-1′-(2-(3-morpholinopropylamino)ethyl) spiro[cyclopropane-1,3′-indolin]-2′-one] | 5.35
7 | O=C(O)c1cccc(CN2C(=O)[C@]3(C[C@@H]3c3ccc(Cl)cc3)c3ccccc32)n1 (racemic) [Example 68, (1S,2R) and (1R,2S)-6-((2-(4-chlorophenyl)-2′-oxospiro[cyclopropane-1,3′-indoline]-1′-yl)methyl)picolinic acid] | 5.55
8 | O=C(O)c1cccc(CN2C(=O)[C@]3(C[C@@H]3c3cccc(Cl)c3)c3ccccc32)c1 (racemic) [Example 3, (1S,2R) and (1R,2S)-3-((2-(3-chlorophenyl)-2′-oxospiro[cyclopropane-1,3′-indoline]-1′-yl)methyl)benzoic acid] | 5.53
9 | O=C1N(CCN2CCOCC2)c2ccccc2[C@@]12C[C@@H]2c1ccc(Cl)cc1 (racemic) [Example 72, (1S,2R) and (1R,2S)-2-(4-chlorophenyl)-1′-(2-morpholinoethyl) spiro[cyclopropane-1,3′-indolin]-2′-one] | 5.39
10 | O=C(O)c1cccc(CN2C(=O)[C@]3(C[C@@H]3c3ccccc3F)c3ccccc32)c1 (mixture of isomers) [Example 8, (1S,2R) and (1R,2S)-3-((2-(2-fluorophenyl)-2′-oxospiro[cyclopropane-1,3′-indoline]-1′-yl)methyl)benzoic acid] | 5.56
11 | O=C(O)c1cccc(CN2C(=O)[C@]3(C[C@@H]3c3ccc(Cl)cc3)c3cc(Br)ccc32)c1 (racemic) [Example 16, (1S,2R) and (1R,2S)-3-((5′-bromo-2-(4-chlorophenyl)-2′-oxospiro[cyclopropane-1,3′-indoline]-1′-yl)methyl)benzoic acid] | 5.57
12 | COc1ccc([C@H]2C[C@]23C(=O)N(Cc2cccc(C(=O)O)c2)c2ccccc23)cc1 (racemic) [Example 21, (1S,2R) and (1R,2S)-3-((2-(4-methoxyphenyl)-2′-oxospiro[cyclopropane-1,3′-indoline]-1′-yl)methyl)benzoic acid] | 5.69

Further lines, results first:

Row | pEC50 | Compound
13 | 5.85 | COc1cccc([C@@H]2C[C@]23C(=O)N(Cc2cccc(C(=O)O)c2)c2ccccc23)c1 (racemic) [Example 19, (1S,2S) and (1R,2R)-3-((2-(3-methoxyphenyl)-2′-oxospiro[cyclopropane-1,3′-indoline]-1′-yl)methyl)benzoic acid]
14 | 5.76 | O=C1N(CCN2CCCCC2)c2ccccc2[C@@]12C[C@@H]2c1ccc(Cl)cc1 (racemic) [Example 125, (1S,2R) and (1R,2S)-2-(4-chlorophenyl)-1′-(2-(piperidin-1-yl)ethyl)spiro[cyclopropane-1,3′-indolin]-2′-one]
15 | 5.81 | O=C(c1cccc(CN2C(=O)[C@@]3(C[C@H]3c3ccc(Cl)cc3)c3ccccc32)c1)N1CCOCC1 (racemic) [Example 63, (1R,2S) and (1S,2R)-2-(4-chlorophenyl)-1′-(3-(morpholine-4-carbonyl)benzyl)spiro[cyclopropane-1,3′-indolin]-2′-one]
16 | 5.97 | CN1CCCC1CCNC(=O)c1cccc(CN2C(=O)[C@]3(C[C@@H]3c3ccc(Cl)cc3)c3ccccc32)c1 (stereo partly drawn) [Example 66, 3-(((1S,2R)-2-(4-chlorophenyl)-2′-oxospiro[cyclopropane-1,3′-indoline]-1′-yl)methyl)-N-(2-((S)-1-methylpyrrolidin-2-yl)ethyl)benzamide and 3-(((1R,2S)-2-(4-chlorophenyl)-2′-oxospiro[cyclopropane-1,3′-indoline]-1′-yl)methyl)-N-(2-((5)-1-methylpyrrolidin-2-yl)ethyl)benzamide]
17 | 5.90 | O=C(NCCCN1CCOCC1)c1cccc(CN2C(=O)[C@@]3(C[C@H]3c3ccc(Cl)cc3)c3ccccc32)c1 (racemic) [Example 112, (1R,2S) and (1S,2R)-3-((2-(4-chlorophenyl)-2′-oxospiro[cyclopropane-1,3′-indoline]-1′-yl)methyl)-N-(3-morpholinopropyl)benzamide]
18 | 6.06 | O=C(O)c1cc(N2CCOC2=O)cc(N2C(=O)[C@]3(C[C@H]3c3ccc(Cl)cc3)c3ccccc32)c1 (racemic) [Example 92, (1S,2S) and (1R,2R)-3-(2-(4-chlorophenyl)-2′-oxospiro[cyclopropane-1,3′-indoline]-1′-yl)-5-(2-oxooxazolidin-3-yl)benzoic acid]
19 | 5.79 | N#Cc1ccc([C@@H]2C[C@]23C(=O)N(Cc2cccc(C(=O)O)c2)c2ccccc23)cc1 (racemic) [Example 17, (1S,2S) and (1R,2R)-3-((2-(4-cyanophenyl)-2′-oxospiro[cyclopropane-1,3′-indoline]-1′-yl)methyl)benzoic acid]
20 | 6.05 | COc1ccc([C@@H]2C[C@]23C(=O)N(Cc2cccc(C(=O)O)c2)c2ccccc23)cc1 (racemic) [Example 20, (1S,2S) and (1R,2R)-3-((2-(4-methoxyphenyl)-2′-oxospiro[cyclopropane-1,3′-indoline]-1′-yl)methyl)benzoic acid]
21 | 6.02 | O=C(O)c1cccc(CN2C(=O)[C@@]3(C[C@@H]3c3ccc(Cl)cc3)c3ccccc32)c1 (racemic) [Example 2, (1R,2R) and (1S,2S)-3-((2-(4-chlorophenyl)-2′-oxospiro[cyclopropane-1,3′-indoline]-1′-yl)methyl)benzoic acid]
22 | 5.80 | O=C(c1cccc(CN2C(=O)[C@@]3(C[C@H]3c3ccc(Cl)cc3)c3ccccc32)c1)N1CCN(c2ccncc2)CC1 (racemic) [Example 64, (1R,2S) and (1S,2R)-2-(4-chlorophenyl)-1′-(3-(4-(pyridin-4-yl)piperazine-1-carbonyl)benzyl)spiro[cyclopropane-1,3′-indolin]-2′-one]
23 | 5.77 | O=C1N(CCN2CCN(c3ccncc3)CC2)c2ccccc2[C@@]12C[C@@H]2c1ccc(Cl)cc1 (racemic) [Example 129, (1S,2R) and (1R,2S)-2-(4-chlorophenyl)-1′-(2-(4-(pyridin-4-yl)piperazin-1-yl)ethyl) spiro[cyclopropane-1,3′-indolin]-2′-one]
24 | 5.81 | CS(=O)(=O)NC(=O)c1cccc(N2C(=O)[C@]3(C[C@@H]3c3ccc(Cl)cc3)c3ccccc32)c1 (racemic) [Example 132, (1S,2R) and (1R,2S)-3-(2-(4-chlorophenyl)-2′-oxospiro[cyclopropane-1,3′-indoline]-1′-yl)-N-(methylsulfonyl)benzamide]
25 | 5.69 | O=C(O)c1cccc(CN2C(=O)[C@@]3(C[C@@H]3c3ccc(Cl)cc3)c3cc(Cl)ccc32)c1 (racemic) [Example 14, (1R,2R) and (1S,2S)-3-((5′-chloro-2-(4-chlorophenyl)-2′-oxospiro[cyclopropane-1,3′-indoline]-1′-yl)methyl)benzoic acid]
